Test results reported in patent publication US6200762A, “Photon reducing agents and compositions for fluorescence assays” (Aurora Biosciences Corporation, priority 1998, dated 2001).
Structures can show the parent of a compound that is named as a salt. Values belong to the compound of their own block, whether it stands above or below them.

Experiments:
[1] = Reduction of solution fluorescence using non-dye quenchers and particulates; settings: 10 μM coumarin, pH 7.5
[2] = Effect of 50% methanol on coumarin fluorescence and phenol red absorbance (dye stacking); format: physicochemical
Method: To further investigate the ability of a photon reducing agent to reduce fluorescence of a solution, fluorescence of a dye in the presence of a photon reducing agent was monitored in the presence and absence of methanol.
[…] A 10 μM solution of 6-chloro-7-hydroxy coumarin-3-carboxylate was prepared in 39 mM phosphate buffer pH 7.5 and in a 1:1 mixture of same phosphate buffer and methanol. 1% (vol/vol) of a 100 mM aqueous Phenol Red stock solution was added to the solutions.
The presence of methanol increased fluorescence compared to an all aqueous buffer.

[3] = Absorption maxima of dyes; format: physicochemical; settings: for Absorption maximum: main value
[4] = pH 7.15
[5] = Reduction of front face fluorescence of a coumarin solution by 1 mM phenol red; settings: 0.5 μM coumarin, phosphate buffer pH 7.5 / 50% methanol
Method: To investigate the ability of a photon reducing agent to reduce fluorescence of a solution, emission of a fluorophore from a sample was monitored in the presence and absence of a photon reducing agent.
Fluorescence from a solution of a blue fluorescent dye, 6-chloro-7-hydroxy coumarin 3-carboxylate, was determined in the presence and absence of a 1 mM phenol red as the photon reducing agent. A solution of 0.5 μM 6-chloro-7-hydroxy coumarin-3-carboxylate in solvent containing 50% (vol/vol) aqueous 39 mM phosphate buffer pH 7.5 and 50% (vol/vol) methanol was prepared. After taking a front face fluorescence spectrum of this solution on a Spex Fluorolog 2, 1% (vol/vol) of a 100 mM aqueous Phenol Red stock solution was added and another spectrum taken. Front face fluorescence refers to exciting the sample at a right angle to the sample surface and collecting emitted light (for example, from the excited region or emission region) at 12.5 degrees from such angle of excitation.

[6] = Reduction of coumarin fluorescence as a function of path length; settings: 10 μM coumarin + 1 mM phenol red, capillary
Method: To further investigate the ability of photon reducing agents to reduce fluorescence emitted from a solution, fluorescence emitted from a solution containing a fluorophore in the presence of a photon reducing agent was monitored as a function sample thickness.
A photon reducing agent, phenol red, was tested with a fluorophore, coumarin, as a function of sample thickness (path length). The experiment was conducted using a microscope equipped with epifluorescence. The liquid samples were drawn into low fluorescence capillary tubes of fixed path length (Vitro Dynamics, Rockaway N.J.) as indicated in the graphs. The following samples were evaluated:
1) 10 μM coumarin (diamonds)
2) 10 μM coumarin+1 mM phenol red (squares)
3) 10 μM coumarin+5% (vol/vol) Schilling Red (triangles).
The samples were excited using a 405/20 filter via a 425 dichroic reflector through a 20× objective (Zeiss 20×Fluar). Emitted light was filtered through a 460/50 filter and detected by an intensified CCD camera (Stanford Photonics, Menlo Park, Calif.). The detector output was converted to a 512×512 pixel eight-bit digital image. The data reflect the average intensity within a 20×20 pixel area within the capillary. The background intensity of the field was subtracted from all values.

SMILES: NCCN(CCN)CCN [tris(2-aminoethyl)amine]
concentration typically required (collisional quenchers) [1]: higher than 100 mM

increase of fluorescence by 50% methanol buffer ([2]; in the absence of a photon reducing agent): about 30%
SMILES: O=C(O)c1cc2cc(Cl)c(O)cc2oc1=O [6-chloro-7-hydroxy coumarin-3-carboxylate]

Absorption maximum [3]: 607 nm
SMILES: Cc1cc(-c2ccc(/N=N/c3c(S(=O)(=O)O)cc4cc(S(=O)(=O)O)cc(N)c4c3O)c(C)c2)ccc1/N=N/c1c(S(=O)(=O)O)cc2cc(S(=O)(=O)O)cc(N)c2c1O [Trypan Blue]

Absorption maximum [3]: 425 nm
SMILES: O=C(O)c1nn(-c2ccc(S(=O)(=O)O)cc2)c(O)c1N=Nc1ccc(S(=O)(=O)O)cc1 [Tartrazine]

SMILES: [Cl][Ni][Cl] [nickel (II) salts, nickel (II) chloride]
concentration at which coumarin fluorescence can be reduced [4]: low millimolar range

SMILES: CC(=O)Nc1ccc(N=Nc2c(N)ccc3cc(S(=O)(=O)[O-])cc(O)c23)c(S(=O)(=O)[O-])c1.[Na+].[Na+] [Acid Red 37]
Absorption maximum [3]: 513 nm

decrease of absorbance by 50% methanol buffer ([2]; at the emission wavelength of the coumarin): about 20%
Absorption maximum [3]: 557 nm
Absorption maximum (second value, in parentheses) ([3]; value in parentheses): 423 nm
SMILES: O=S1(=O)OC(c2ccc(O)cc2)(c2ccc(O)cc2)c2ccccc21 [Phenol Red]
reduction of front face fluorescence [5]: 70 fold
attenuation of coumarin fluorescence [6]: significantly attenuated
